{"source": "patent US7090851B1", "about": "“Long lasting fusion peptide inhibitors of viral infection” (priority 1999, dated 2006)", "origin": "cited, not measured here", "key": {"[1]": {"tested_on": "human parainfluenza virus 3 (HPIV3)", "conditions": "HPIV3-infected Hep2 cells and uninfected CV-1W cells"}, "[2]": {"tested_on": "simian immunodeficiency virus (SIV)", "conditions": "as crude peptide"}, "[3]": {"tested_on": "measles virus (MeV)", "conditions": "MeV-infected and uninfected Vero cells"}, "[4]": {"tested_on": "respiratory syncytial virus (RSV)", "conditions": "for inhibition of RSV viral infection, fusion and syncytia formation: RSV-infected and uninfected Hep-2 cells"}, "[5]": {"tested_on": "HIV-1", "conditions": "infection and cell-cell fusion"}}, "note": "“Also recorded” adds a separate entry of the source. Like-named read-outs stand apart in the source and are kept apart here."}
{"substance": "LDPIDISIELNKAKSDLEESKEWIRRSNQKLDSIG (ALDPIDISIELNKAKSDLEESKEWIRRSNQKLDSI) [SEQ ID NO:39, anti-HPIV peptide]", "values": [{"measurement": "inhibition of HPIV3 viral infection, fusion and syncytia formation", "setting": "[1]", "result": "inhibits viral infection"}]}
{"substance": "QEWERKVDFLEENITALLEEAQIQQEKNMYELQKL [SEQ ID NO:65]", "values": [{"measurement": "anti-SIV activity", "setting": "[2]", "result": "potent antiviral activity"}]}
{"substance": "WERKVDFLEENITALLEEAQIQQEKNMYELQKLNS [SEQ ID NO:67]", "values": [{"measurement": "anti-SIV activity", "setting": "[2]", "result": "potent antiviral activity"}]}
{"substance": "IDLGPPISLERLDVGTNLGNAIAKLEAKELLESS [SEQ ID NO:79]", "values": [{"measurement": "inhibition of MeV viral infection, fusion and syncytia formation", "setting": "[3]", "result": "inhibits viral infection"}]}
{"substance": "FLEENITALLEEAQIQQEKNMYELQKLNSWDVFGN [SEQ ID NO:73]", "values": [{"measurement": "anti-SIV activity", "setting": "[2]", "result": "potent antiviral activity"}]}
{"substance": "PISLERLDVGTNLGNAIAKLEAKELLESSDQILR [SEQ ID NO:84]", "values": [{"measurement": "inhibition of MeV viral infection, fusion and syncytia formation", "setting": "[3]", "result": "inhibits viral infection"}]}
{"substance": "WQEWERKVDFLEENITALLEEAQIQQEKNMYELQK [SEQ ID NO:64]", "values": [{"measurement": "anti-SIV activity", "setting": "[2]", "result": "potent antiviral activity"}]}
{"substance": "VITIELSNIKENKCNGAKVKLIKQELDKYKNAV (VITIELSNIKENKCNGDAKVKLIKQELDKYKNAV) [SEQ ID NO:16, anti-RSV peptide]", "values": [{"measurement": "inhibition of RSV viral infection, fusion and syncytia formation", "setting": "[4]", "result": "inhibits viral infection"}]}
{"substance": "PIDISIELNKAKSDLEESKEWIRRSNQKLDSIGNW (DPIDISIELNKAKSDLEESKEWIRRSNQKLDSIGN) [SEQ ID NO:41, anti-HPIV peptide]", "values": [{"measurement": "inhibition of HPIV3 viral infection, fusion and syncytia formation", "setting": "[1]", "result": "inhibits viral infection"}]}
{"substance": "VEAKQARSDIEKLKEAIRDTNKAVQSVQSSIGNLI [SEQ ID NO:52]", "values": [{"measurement": "inhibition of HPIV3 viral infection, fusion and syncytia formation", "setting": "[1]", "result": "inhibits viral infection"}]}
{"substance": "VDFLEENITALLEEAQIQQEKNMYELQKLNSWDVF [SEQ ID NO:71]", "values": [{"measurement": "anti-SIV activity", "setting": "[2]", "result": "potent antiviral activity"}]}
{"substance": "IDISIELNKAKSDLEESKEWIRRSNQKLDSIGNWH (PIDISIELNKAKSDLEESKEWIRRSNQKLDSIGNW) [SEQ ID NO:42, anti-HPIV peptide]", "values": [{"measurement": "inhibition of HPIV3 viral infection, fusion and syncytia formation", "setting": "[1]", "result": "inhibits viral infection"}]}
{"substance": "DPIDISIELNKAKSDLEESKEWIRRSNQKLDSIGN (LDPIDISIELNKAKSDLEESKEWIRRSNQKLDSIG) [SEQ ID NO:40, anti-HPIV peptide]", "values": [{"measurement": "inhibition of HPIV3 viral infection, fusion and syncytia formation", "setting": "[1]", "result": "inhibits viral infection"}]}
{"substance": "EWERKVDFLEENITALLEEAQIQQEKNMYELQKLN [SEQ ID NO:66]", "values": [{"measurement": "anti-SIV activity", "setting": "[2]", "result": "potent antiviral activity"}]}
{"substance": "ERKVDFLEENITALLEEAQIQQEKNMYELQKLNSW [SEQ ID NO:68]", "values": [{"measurement": "anti-SIV activity", "setting": "[2]", "result": "potent antiviral activity"}]}
{"substance": "TSVITIELSNIKENKCNGAKVKLIKQELDKYKN (TSVITIELSNIKENKCNGDAKVKLIKQELDKYKN) [SEQ ID NO:15, anti-RSV peptide]", "values": [{"measurement": "inhibition of RSV viral infection, fusion and syncytia formation", "setting": "[4]", "result": "inhibits viral infection"}]}
{"substance": "RKVDFLEENITALLEEAQIQQEKNMYELQKLNSWD [SEQ ID NO:69]", "values": [{"measurement": "anti-SIV activity", "setting": "[2]", "result": "potent antiviral activity"}]}
{"substance": "enfuvirtide", "values": [{"measurement": "anti-HIV-1 activity (words)", "setting": "[5]", "result": "potent inhibitor of HIV-1; also recorded: potent anti-HIV-1 activity"}, {"measurement": "anti-HIV-1 activity (words)", "setting": "[5]; listed as DP-178", "result": "potent inhibitors of HIV-1 infection and fusion"}]}
{"substance": "NNLLRAIEAQQHLLQLTVWQIKQLQARILAVERYLKDQ [DP107]", "values": [{"measurement": "anti-HIV-1 activity (words)", "setting": "[5]; listed as DP-107", "result": "potent inhibitors of HIV-1 infection and fusion"}]}
{"substance": "NSVALDPIDISIELNKAKSDLEESKEWIRRSNQKL (NNSVALDPIDISIELNKAKSDLEESKEWIRRSNQK) [SEQ ID NO:35, anti-HPIV peptide]", "values": [{"measurement": "inhibition of HPIV3 viral infection, fusion and syncytia formation", "setting": "[1]", "result": "inhibits viral infection"}]}
{"substance": "HRIDLGPPISLERLDVGTNLGNAIAKLEAKELLE [SEQ ID NO:77]", "values": [{"measurement": "inhibition of MeV viral infection, fusion and syncytia formation", "setting": "[3]", "result": "inhibits viral infection"}]}
{"substance": "YTSVITIELSNIKENKCNGAKVKLIKQELDKYK (YTSVITIELSNIKENKCNGDAKVKLIKQELDKYK) [SEQ ID NO:14, anti-RSV peptide]", "values": [{"measurement": "inhibition of RSV viral infection, fusion and syncytia formation", "setting": "[4]", "result": "inhibits viral infection"}]}
{"substance": "ALDPIDISIELNKAKSDLEESKEWIRRSNQKLDSI (VALDPIDISIELNKAKSDLEESKEWIRRSNQKLDS) [SEQ ID NO:38, anti-HPIV peptide]", "values": [{"measurement": "inhibition of HPIV3 viral infection, fusion and syncytia formation", "setting": "[1]", "result": "inhibits viral infection"}]}
{"substance": "RSDIEKLKEAIRDTNKAVQSVQSSIGNLIVAIKSV [SEQ ID NO:58]", "values": [{"measurement": "inhibition of HPIV3 viral infection, fusion and syncytia formation", "setting": "[1]", "result": "inhibits viral infection"}]}
{"substance": "KVDFLEENITALLEEAQIQQEKNMYELQKLNSWDV [SEQ ID NO:70]", "values": [{"measurement": "anti-SIV activity", "setting": "[2]", "result": "potent antiviral activity"}]}
{"substance": "DFLEENITALLEEAQIQQEKNMYELQKLNSWDVFG [SEQ ID NO:72]", "values": [{"measurement": "anti-SIV activity", "setting": "[2]", "result": "potent antiviral activity"}]}
{"substance": "IALLSTNKAVVSLSNGVSVLTSKVLDLKNYIDK [SEQ ID NO:29, anti-RSV peptide]", "values": [{"measurement": "concentration inhibiting fusion and syncytia formation between RSV-infected and uninfected Hep-2 cells", "setting": "[4]; Hep-2 cells", "result": "less than 50 μg/ml"}, {"measurement": "inhibition of RSV viral infection, fusion and syncytia formation", "setting": "[4]", "result": "inhibits viral infection"}]}
